According to patent US10450293B2, “Chemokine CXCR4 and CCR5 receptor modulators and uses related thereto” (Emory University, priority 2014, dated 2019):
Like-named read-outs stand apart in the source and are kept apart here.

How the values were obtained:
[1] = biological target: T1, HIV-1 reverse transcriptase (Human immunodeficiency virus type 1 group M subtype B, UniProt P03366); assay: biochemical; type: biochemical; details: for IC50: read-out: RT IC50
[2] = tested on: HIV-1 IIIB; assay: HIV-1 MAGI assay, IIIB (CXCR4 / T-tropic); type: cell-based
Protocol: (§1) Bayesian statistical models were constructed using known CXCR4 and CCR5 active compounds from literature, and these models were used to virtually screen 5 million compounds in the Aldrich Marketplace Select library. The screen yielded 14 compounds of interest that were then tested for their anti-HIV activity for both tropisms in MAGI assay. Two compounds (FIG. 1, compounds 1 and 2) were active against both T and M tropic forms of HIV with IC50 values of ˜20 μM. These initial hits were followed-up by a second round of virtual screening based on similarity and sub-structure searching. Another 24 compounds were purchased from the same database and tested. […] This compound was then subjected to a series of biological evaluations to determine activity profile and confirm mechanism of action.

[3] = tested on: HIV-1 Ba-L; assay: HIV-1 MAGI assay, Ba-L (CCR5 / M-tropic); type: cell-based; details: Human immunodeficiency virus 1, BAL
Protocol: as §1

[4] = MAGI toxicity; details: human, MAGI cells, TC50, table of synthesized compounds
[5] = biological target: T2, CXCR4 (Homo sapiens, UniProt P61073); assay: Nef-M1:CXCR4 induced mitochondrial membrane depolarization (MMD) inhibition in Jurkat cells; type: cell-based; parameters: endogenous in cells; host or cells: Jurkat; details: in words
T2 sequence (P61073 whole entry): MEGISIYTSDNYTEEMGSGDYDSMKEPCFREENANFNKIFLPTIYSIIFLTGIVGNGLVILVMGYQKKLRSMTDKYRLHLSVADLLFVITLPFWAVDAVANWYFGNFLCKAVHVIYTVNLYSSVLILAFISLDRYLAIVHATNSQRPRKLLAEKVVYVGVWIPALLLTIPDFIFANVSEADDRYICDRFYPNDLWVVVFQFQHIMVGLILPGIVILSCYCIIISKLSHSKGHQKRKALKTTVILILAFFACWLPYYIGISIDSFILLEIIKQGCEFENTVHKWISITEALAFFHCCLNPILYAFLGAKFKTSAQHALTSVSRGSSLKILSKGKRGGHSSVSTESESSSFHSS

[6] = biological target: T1, HIV-1 reverse transcriptase; assay: STD-NMR binding epitope study, HIV-1 reverse transcriptase; details: 1 mM compound, 30 ng/ml HIV reverse transcriptase
Protocol: (§2) Saturation Transfer Difference Spectroscopy (STD) was used to study the interactions between m7CCR5, HIV-1 reverse transcriptase, CXCR4, and compound 2 disclosed herein. Brandt et al., J Biol Chem. 2002, 277(19):17291-9. […] An on-resonance spectrum is recorded where m7CCR5 is selectively saturated giving rise to compound signals intensities.
(§3) The difference of off-resonance from the on-resonance spectrum results in the STD spectrum indicating proton that are in close contact to the protein surface. Non-binding protons cancelled out. The signal intensities can be quantified indicating the relative distance of the proton. Normalizing the measured STD intensities against the most intense can be expressed as percentages.
Spectra were collected on a 600 MHz Varian equipped with a triple-resonance cryoprobe, and STD spectra were collected with 512 scans at an on-resonance frequency of +0.5 ppm. Panel a) is a ^1H NMR spectrum of compound 2 in 100% deuterated phosphate buffered saline (PBS, pH=7.4). b) STD NMR spectrum of compound 2 in PBS in the absence of protein. c) STD NMR spectrum of 1 mM compound 2 in the presence of 30 ng/ml HIV reverse transcriptase (CalBioChem). d) Binding epitope of compound 2 binding to HIV-RT obtained by integrating the signals from (c).

[7] = tested on: m7CCR5; assay: STD-NMR binding epitope study, m7CCR5; details: 1 mM compound, 10 μM m7CCR5
Protocol: as §2, §3
STD binding epitope studies of compound 2 interacting with m7CCR5 (isolated, bacterially-expressed CCR5 construct) is shown in FIG. 2B. […] 100 mM HEPES, 150 mM NaCl, pH=7) in the absence of protein. c) STD NMR spectrum of 1 mM compound 2 in the presence of 10 μM m7CCR5 resolubilized in DDM/DOPC bicelle buffer. d) STDD spectrum of compound 2 binding to m7CCR5 obtained by subtracting (b) from (c). e) STDD binding epitope of compound 2 complexed to m7CCR5 obtained by integrating signals from (d).

[8] = biological target: T2, CXCR4; assay: STD-NMR binding epitope study, CXCR4 in CHO membrane extracts; details: 1 mM compound, 30% CXCR4-expressing CHO membrane extracts
Protocol: as §2, §3
STD binding epitope studes of compound 2 interacting with CXCR4 obtained from Chinese Hamster Ovary (CHO) membrane extracts as shown in FIG. 2C.

[9] = biological target: T3, CCR5 (Homo sapiens, UniProt P51681); assay: HeLa-C14:JRFL CD4-dependent cell-cell fusion assay; type: cell-based; details: luciferase readout, in words
T3 construct: expressed in transfected cells; host or cells: HeLa-C14
T3 sequence (P51681 whole entry, the tested form may be a part): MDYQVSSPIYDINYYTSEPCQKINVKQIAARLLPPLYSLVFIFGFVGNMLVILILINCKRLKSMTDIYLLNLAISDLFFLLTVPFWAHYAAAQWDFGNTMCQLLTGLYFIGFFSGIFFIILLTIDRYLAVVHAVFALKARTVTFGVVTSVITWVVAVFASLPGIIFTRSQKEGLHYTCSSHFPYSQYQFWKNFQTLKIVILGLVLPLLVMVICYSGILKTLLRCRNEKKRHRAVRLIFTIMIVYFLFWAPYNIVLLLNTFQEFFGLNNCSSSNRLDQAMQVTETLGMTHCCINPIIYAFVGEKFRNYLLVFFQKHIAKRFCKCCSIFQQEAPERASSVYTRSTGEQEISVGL
Description: Cell-cell fusion assays measure specifically co-receptor mediated inhibition of gp120-induced fusion in the absence of other viral machinery, and these assays were used to explore the CCR5- and CXCR4-specific antiviral activity. A cell-cell fusion assay was constructed to simulate HIV-1 entry in the absence of other viral machinery. The assay measured fusion of effector cells expressing the JRFL envelope (CCR5-tropic/CD4 dependent) with HeLa-C14 target cells (expressing CD4, CCR5, and CXCR4) using a luciferase readout (FIG. 5A).

[10] = tested on: NNRTI-resistant viral strain containing the K103N/Y181C mutations; type: cell-based
[11] = Human immunodeficiency virus 1, IIIB, MAGI, Table 3, read-out: MAGI Assay IC50 CXCR4
[12] = Table 3, read-out: MAGI Assay IC50 CCR5
[13] = Human immunodeficiency virus 1, IIIB, MAGI, table of synthesized compounds, read-out: X4-IC50
[14] = table of synthesized compounds, read-out: R5-IC50
[15] = Human immunodeficiency virus 1, IIIB, MAGI, value stated for both tropisms, read-out: IC50 against T tropic HIV in MAGI assay
[16] = MAGI, value stated for both tropisms, read-out: IC50 against M tropic HIV in MAGI assay

Fc1cc(CN2CCC(c3[nH]ncc3Cc3ccccc3)CC2)ccn1
IC50 ([1]; Table 3): 10 µM | IC50 [2, 11]: > 10 µM | IC50 [3, 12]: 10 µM

CS(=O)(=O)c1cc(CN2CCC(c3[nH]ncc3Cc3ccccc3)CC2)ccn1
IC50 ([1]; Table 3): 4 µM | IC50 [2, 11]: 0.4 µM | IC50 [3, 12]: 0.6 µM

c1ccc(Cc2cn[nH]c2C2CCN(Cc3ccncn3)CC2)cc1
IC50 ([1]; Table 3): 146 µM | IC50 [2, 11]: > 100 µM | IC50 [3, 12]: 20 µM

N#Cc1ccc(CN2CCC(c3[nH]ncc3Cc3ccccc3)CC2)nc1
IC50 ([1]; Table 3): 211 µM | IC50 [2, 11]: > 100 µM | IC50 [3, 12]: 43 µM

CN(C)c1ccc(CN2CCC(c3[nH]ncc3Cc3ccccc3)CC2)cc1
RT IC50 ([1]; Table 3): inactive | MAGI Assay IC50 CXCR4 ([2]; Table 3): inactive | IC50 [3, 12]: 5 µM

COc1cccc(CN2CCC(c3[nH]ncc3Cc3ccccc3)CC2)c1Cl
IC50 ([1]; Table 3): 1.5 µM | IC50 [2, 11]: 2 µM | IC50 [3, 12]: 1 µM

c1ccc(Cc2cn[nH]c2C2CCN(Cc3ccnc4ccccc34)CC2)cc1
IC50 ([1]; Table 3): 3 µM | IC50 [2, 11]: 1 µM | IC50 [3, 12]: 0.8 µM

Clc1nccc(CN2CCC(c3[nH]ncc3Cc3ccccc3)CC2)c1Cl
IC50 ([1]; Table 3): 4 µM | IC50 [2, 11]: 1.5 µM | IC50 [3, 12]: 0.8 µM

[O-][n+]1ccc(CN2CCC(c3[nH]ncc3Cc3ccccc3)CC2)cc1
IC50 ([1]; Table 3): > 100 µM | IC50 [2, 11]: > 100 µM | IC50 [3, 12]: > 100 µM

Cc1n[nH]c(C2CCN(Cc3ccncc3Cl)CC2)c1Cc1ccccc1
activity at 100 µM ([1]; @ 100 uM, read-out: % Activity of RT): 4% | inhibition at 1 µM ([2]; Human immunodeficiency virus 1, IIIB, MAGI, @ 1 uM, read-out: MAGI Assay % inhib CXCR4): 79% | inhibition at 1 µM ([3]; @ 1 uM, read-out: MAGI Assay % inhib CCR5): 92%

c1ccc(CCCC2CCN(Cc3ccccn3)CC2)cc1
CC50 [4]: > 100 µM | IC50 [2, 13]: 137 µM | IC50 [3, 14]: 73.5 µM

c1ccc(Cc2cn[nH]c2C2CCN(Cc3ccccc3)CC2)cc1 [1-benzyl-4-(4-benzyl-1H-pyrazol-3-yl)piperidine]
CC50 [4]: > 100 µM | IC50 [2, 13]: 13 µM | IC50 [3, 14]: 18.1 µM

c1ccc(Cc2cn[nH]c2C2CCN(Cc3ccccn3)CC2)cc1 [2-((4-(4-benzyl-1H-pyrazol-3-yl)piperidin-1-yl)methyl)pyridine]
CC50 [4]: > 100 µM | IC50 [2, 13]: 24.8 µM | IC50 [3, 14]: 16.7 µM

FC(F)(F)c1ccc(CN2CCC(c3[nH]ncc3Cc3ccccc3)CC2)cc1 [4-(4-benzyl-1H-pyrazol-3-yl)-1-(4 (trifluoromethyl)benzyl)piperidine]
CC50 [4]: 18 µM | IC50 [2, 13]: 13.2 µM | IC50 [3, 14]: 9.72 µM

CS(=O)(=O)c1ccc(CN2CCC(c3[nH]ncc3Cc3ccccc3)CC2)cc1 [4-(4-benzyl-1H-pyrazol-3-yl)-1-(4-(methylsulfonyl)benzyl)piperidine]
CC50 [4]: > 100 µM | IC50 [2, 13]: 1 µM | IC50 [3, 14]: 2 µM

Clc1ccc(CN2CCC(c3[nH]ncc3Cc3ccccc3)CC2)cc1 [4-(4-benzyl-1H-pyrazol-3-yl)-1-(4-chlorobenzyl)piperidine]
CC50 [4]: 18.6 µM | IC50 [2, 13]: 5.33 µM | IC50 [3, 14]: 5.61 µM

c1ccc(Cc2cn[nH]c2C2CCN(CC3CCCCC3)CC2)cc1 [4-(4-benzyl-1H-pyrazol-3-yl)-1-(cyclohexylmethyl)piperidine]
CC50 [4]: 142 µM | IC50 [2, 13]: 58.5 µM | IC50 [3, 14]: 49.4 µM

N#Cc1ccc(CN2CCC(c3[nH]ncc3Cc3ccccc3)CC2)cc1 [4-((4-(4-benzyl-1H-pyrazol-3-yl)piperidin-1-yl)methyl)benzonitrile]
CC50 [4]: 60 µM | IC50 [2, 13]: 5.3 µM | IC50 [3, 14]: 8.52 µM

c1cc(CN2CCCNCCNCCCNCC2)ccc1CN1CCCNCCNCCCNCC1 [AMD3100]
inhibition of Nef-M1 induced MMD [5]: inhibited

Cc1cn([C@H]2C[C@H](N=[N+]=[N-])[C@@H](CO)O2)c(=O)[nH]c1=O [AZT]
inhibition of Nef-M1 induced MMD [5]: inactive

Clc1ccc(Cc2nc(CN3CCN(Cc4ccccn4)CC3)cs2)cc1 [Compound 1]
IC50 [2, 15]: ~20 µM | IC50 [3, 16]: ~20 µM

c1ccc(Cc2c[nH]nc2C2CCN(Cc3ccccn3)CC2)cc1 [Compound 2]
IC50 [2, 15]: ~20 µM | IC50 [3, 16]: ~20 µM | interaction with HIV-1 reverse transcriptase (STD NMR) [6]: interacts | interaction with m7CCR5 (STD NMR) [7]: interacts | interaction with CXCR4 (STD NMR) [8]: interacts

Cc1ccc(-c2ccc3c(c2)C=C(C(=O)Nc2ccc(C[N+](C)(C)C4CCOCC4)cc2)CCC3)cc1.[Cl-] [TAK-779, reference compound]
inhibition of JRFL envelope / HeLa-C14 cell-cell fusion [9]: inhibited fusion

Clc1cnccc1CN1CCC(c2[nH]ncc2Cc2ccccc2)CC1 [drawing 40]
IC50 ([1]; Table 3): 10 µM | IC50 [2, 11]: 0.1 µM | IC50 [3, 12]: 0.2 µM

Clc1cc(CN2CCC(c3[nH]ncc3Cc3ccccc3)CC2)ccn1 [drawing 41]
IC50 ([1]; Table 3): 10 µM | IC50 [2, 11]: 0.2 µM | IC50 [3, 12]: 0.3 µM

c1ccc(Cc2cn[nH]c2C2CCN(Cc3cccc4ccccc34)CC2)cc1 [drawing 49]
IC50 ([1]; Table 3): 20 µM | IC50 [2, 11]: 7 µM | IC50 [3, 12]: 8 µM

c1ccc(Cc2cn[nH]c2C2CCN(Cc3ccc4ccccc4c3)CC2)cc1 [drawing 50]
IC50 ([1]; Table 3): 23 µM | IC50 [2, 11]: 4 µM | IC50 [3, 12]: 4 µM

c1ccc(Cc2cn[nH]c2C2CCN(Cc3ccc4ccccc4c3)CC2)cc1 [drawing 85, 4-(4-benzyl-1H-pyrazol-3-yl)-1-(naphthalen-2-ylmethyl)piperidine]
CC50 [4]: 16.8 µM | IC50 [2, 13]: 4.03 µM | IC50 [3, 14]: 4.47 µM

c1ccc(Cc2cn[nH]c2C2CCN(Cc3cccc4ccccc34)CC2)cc1 [drawing 86, 4-(4-benzyl-1H-pyrazol-3-yl)-1-(naphthalen-1-ylmethyl)piperidine]
CC50 [4]: 17.9 µM | IC50 [2, 13]: 6.79 µM | IC50 [3, 14]: 7.63 µM

Clc1cnccc1CN1CCC(c2[nH]ncc2Cc2ccccc2)CC1 [drawing 92, 4-((4-(4-benzyl-1H-pyrazol-3-yl)piperidin-1-yl)methyl)-3-chloropyridine]
CC50 [4]: 67 µM | IC50 [2, 13]: 0.21 µM | IC50 [3, 14]: 0.14 µM

Clc1cc(CN2CCC(c3[nH]ncc3Cc3ccccc3)CC2)ccn1 [drawing 93, 4-((4-(4-benzyl-1H-pyrazol-3-yl)piperidin-1-yl)methyl)-2-chloropyridine]
CC50 [4]: 34 µM | IC50 [2, 13]: 0.28 µM | IC50 [3, 14]: 0.17 µM

O=C1Nc2ccc(Cl)cc2[C@@](C#CC2CC2)(C(F)(F)F)O1 [efavirenz]
loss of antiviral activity against K103N/Y181C mutant compared to wild type [10]: 70 fold

maraviroc
inhibition of Nef-M1 induced MMD [5]: inactive
